Test results published in patent publication US20190187129A1, “CANCER MODELING PLATFORMS AND METHODS OF USING THE SAME” (Wake Forest University Health Sciences, priority 2016, published 2019).
Entries after “also recorded” stand apart in the source; their conditions may differ.

Experiments:
[1] = tested on: mesothelioma organoids; test: Biomarker-driven drug study on patient organoids (MTS, Annexin V/Ki67 IHC, H&E); format: cell-based, human; settings: 0.1 μM, 1 μM, 10 μM; 96 hours
Description: (§1) 5 μm thick organoid sections were created from paraffin-embedded constructs, and then deparaffinized for staining. IHC was used to visualize biomarkers cytokeratin 5/6 (CK5/6), calretinin, and thrombomodulin. Blocking was performed by incubation under Dako Protein Block for 15 minutes. Primary antibodies CK5/6 (Abcam, ab17133, raised in mouse) and calretinin (Abcam, ab702, raised in rabbit) or CK5/6 and thrombomodulin (Abcam, ab109189, raised in rabbit) were applied to the sections on the slides at a 1:200 dilution in Dako Antibody Diluent and incubated at room temperature for 1 hour. Next, secondary Alexa Fluor 488 or Alexa Fluor 594 antibodies with appropriate species reactivity were applied to all samples at 1:200 in Dako Antibody Diluent and left at room temperature for 1 hour (anti-mouse Alexa Fluor 488 and anti-rabbit Alexa Fluor 594, Life Technologies, Carlsbad, Calif., A-11070). Sections were then incubated with Dapi for 5 minutes prior to coverslipping. […] Fluorescence images were taken using a Leica DM400B Compound Microscope and overlaid for analysis.
(§2) Tumor constructs were biofabricated once more, after which they were maintained for 3 days prior to drug screening. […] Drug effects were quantified by MTS assays and immunohistochemistry. MTS assays (CellTiter 96 One Solution Reagent Promega, Madison, Wis.) determined relative cell number by quantifying mitochondrial metabolism. Absorbance values were determined on a Molecular Devices SpectrumMax M5 (Molecular Devices) tunable plate reader system at a wavelength of 490 nm.
(§3) Immunohistochemisty staining was performed using biomarkers Annexin V and Ki67 on 5 μm thick organoid sections. […] Fluorescence images were taken using a Leica DM400B Compound Microscope, images were taken of sections next to each other in GFP for Annexin V and Ki67 and overlaid for analysis; Annexin V images were colored red (medium grey in black and white images) and Ki67 images were colored green (light grey in black and white images).

[2] = tested on: HCT116 organoids; test: Biomarker-driven drug study on control organoids (MTS, Annexin V/Ki67 IHC, H&E); format: cell-based; settings: 0.1 μM, 1 μM, 10 μM; 96 hours
Description: as §1, §2, §3

[3] = tested on: HCT116 cells; settings: literature reference 31; cited from earlier work

## Nc1nccc2c1ncn2[C@@H]1C=C(CO)[C@@H](O)[C@H]1O [DZNep, 3-deazaneplanocin A]
[1]
  Annexin V and Ki67 immunohistochemistry: Annexin V appears to increase in mesothelioma with increase in DZNep concentration; also recorded: increasing trend in annexin V expression; also recorded: higher ratios of Annexin V to Ki67
  Hematoxylin and eosin staining, cell morphology: ghost cells and those without nuclei; also recorded: loss of normal morphology and appearance of ghost cells with no nuclei
  proliferation / mitochondrial metabolism (MTS assay): significant decrease in mesothelioma proliferation; also recorded: decrease in mitochondrial metabolism; also recorded: decreased mitochondrial metabolism
[2]
  Annexin V and Ki67 immunohistochemistry: minimal change in proliferation
  Hematoxylin and eosin staining, cell morphology: not present in any HCT116 treatments; also recorded: do not show this dose dependent change
  proliferation / mitochondrial metabolism (MTS assay): no significant decrease in HCT116 proliferation; also recorded: little effect; also recorded: do not appear to respond negatively
[3]
  effect on HCT116 cells upon treatment: cell cycle arrest, but not necessarily significant levels of cell death
